In assay [1] the target is T1, GLP-1 receptor (Homo sapiens, UniProt P43220). Description: Assay for production of cAMP.
Procedure: Assay for Production of cAMP
After stirring at room temperature for an hour, the cells were lysed with Triton X-100 (final concentration: 1%).
Quantity of cAMP was determined using cAMP Femtomolar Kit (CIS Bio International). The reaction solution (1 μL) was moved to a new 384-well plate and diluted by adding 9 μL of dilution buffer. Next, each 5 μL of cAMP-XL665 solution and anti-cAMP cryptate solution of the Kit was added, the mixture was incubated at room temperature for an hour, and time-resolved fluorescence was measured using RUBYstar (BMG LABTECH).
Assay [2] has as its target T1, GLP-1 receptor.
Procedure: After being incubated at room temperature for 2 hours, the solution was filtered through a unifilter 96GF/C plate (Perkin-Elmer) pretreated with 1% polyethylenimine containing 0.5% BSA, washed with 25 mM HEPES buffer solution (pH 7.4) containing 0.5% BSA, and radioactivity remained on the filter was measured by a gamma counter (Top Counter; Perkin-Elmer).

What is called EC50 is the concentration needed to bring the measured effect to its halfway point. Higher therefore signals weaker potency. The IC50 is the concentration at which inhibition is half-maximal.

Peptide text beside a SMILES is read from it. * marks the point of attachment. X2 = CC(=O)N[C@@H]1[C@@H](O)[C@H](O[C@@H]2O[C@H](CO[C@]3(C(=O)O)C[C@H](O)[C@@H](NC(C)=O)[C@H]([C@H](O)[C@H](O)CO)O3)[C@H](O)[C@H](O)[C@H]2O)[C@@H](CO)O[C@H]1N*

T1 sequence (P43220 24-463, species assumed): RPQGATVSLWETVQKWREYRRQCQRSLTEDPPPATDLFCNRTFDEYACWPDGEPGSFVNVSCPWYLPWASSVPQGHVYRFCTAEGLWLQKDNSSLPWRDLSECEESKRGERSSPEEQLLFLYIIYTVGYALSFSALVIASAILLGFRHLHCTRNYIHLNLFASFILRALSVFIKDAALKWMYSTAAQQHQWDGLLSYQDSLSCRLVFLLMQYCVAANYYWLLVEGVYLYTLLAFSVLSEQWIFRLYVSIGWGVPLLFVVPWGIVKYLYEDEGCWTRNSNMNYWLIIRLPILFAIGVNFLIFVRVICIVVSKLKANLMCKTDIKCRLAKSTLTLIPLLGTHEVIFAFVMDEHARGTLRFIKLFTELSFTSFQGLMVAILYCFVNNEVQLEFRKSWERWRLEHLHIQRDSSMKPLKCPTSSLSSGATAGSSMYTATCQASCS

On GLP-1 receptor [1], `CC[C@H](C)[C@H](NC(=O)[C@H](Cc1ccccc1)NC(=O)[C@H](CCC(=O)O)NC(=O)[C@H](CCCCN)NC(=O)[C@H](C)NC(=O)[C@H](C)NC(=O)[C@H](CCC(N)=O)NC(=O)CNC(=O)[C@H](CCC(=O)O)NC(=O)[C@H](CC(C)C)NC(=O)[C@H](CC(=O)N[C@@H]1O[C@H](CO)[C@@H](O[C@@H]2O[C@H](CO[C@]3(C(=O)O)C[C@H](O)[C@@H](NC(C)=O)[C@H]([C@H](O)[C@H](O)CO)O3)[C@H](O)[C@H](O)[C@H]2O)[C@H](O)[C@H]1NC(C)=O)NC(=O)[C@H](CO)NC(=O)[C@H](CO)NC(=O)[C@@H](NC(=O)[C@H](CC(=O)O)NC(=O)[C@H](CO)NC(=O)[C@@H](NC(=O)[C@H](Cc1ccccc1)NC(=O)[C@@H](NC(=O)CNC(=O)[C@H](CCC(=O)O)NC(=O)[C@H](C)NC(=O)[C@@H](N)Cc1c[nH]cn1)[C@@H](C)O)[C@@H](C)O)C(C)C)C(=O)N[C@@H](C)C(=O)N[C@@H](Cc1c[nH]c2ccccc12)C(=O)N[C@@H](CC(C)C)C(=O)N[C@H](C(=O)N[C@@H](CCCCN)C(=O)NCC(=O)N[C@@H](CCCNC(=N)N)C(N)=O)C(C)C` [GL19NS6] (H-HAEGTFTSDVSSD(X2)LEGQAAKEFIAWLVKGR-NH2) had an EC50 of 50 nM. The same compound yielded an IC50 at GLP-1 receptor [2] of more than 100 nM.

Turning to `CC[C@H](C)[C@H](NC(=O)[C@H](Cc1ccccc1)NC(=O)[C@H](CCC(=O)O)NC(=O)[C@H](CCCCN)NC(=O)[C@H](C)NC(=O)[C@H](C)NC(=O)[C@H](CCC(N)=O)NC(=O)CNC(=O)[C@H](CCC(=O)O)NC(=O)[C@H](CC(C)C)NC(=O)[C@H](Cc1ccc(O)cc1)NC(=O)[C@H](CO)NC(=O)[C@H](CO)NC(=O)[C@@H](NC(=O)[C@H](CC(=O)O)NC(=O)[C@H](CO)NC(=O)[C@@H](NC(=O)[C@H](Cc1ccccc1)NC(=O)[C@@H](NC(=O)CNC(=O)[C@H](CCC(=O)O)NC(=O)[C@H](C)NC(=O)[C@@H](N)Cc1c[nH]cn1)[C@@H](C)O)[C@@H](C)O)C(C)C)C(=O)N[C@@H](C)C(=O)N[C@@H](Cc1c[nH]c2ccccc12)C(=O)N[C@@H](CC(C)C)C(=O)N[C@H](C(=O)N[C@@H](CSCC(=O)N[C@@H](CC(=O)N[C@@H]1O[C@H](CO)[C@@H](O[C@@H]2O[C@H](CO)[C@@H](O[C@@H]3O[C@H](CO[C@H]4O[C@H](CO)[C@@H](O)[C@H](O)[C@@H]4O[C@@H]4O[C@H](CO)[C@@H](O[C@@H]5O[C@H](CO[C@]6(C(=O)O)C[C@H](O)[C@@H](NC(C)=O)[C@H]([C@H](O)[C@H](O)CO)O6)[C@H](O)[C@H](O)[C@H]5O)[C@H](O)[C@H]4NC(C)=O)[C@@H](O)[C@H](O[C@H]4O[C@H](CO)[C@@H](O)[C@H](O)[C@@H]4O[C@@H]4O[C@H](CO)[C@@H](O[C@@H]5O[C@H](CO[C@]6(C(=O)O)C[C@H](O)[C@@H](NC(C)=O)[C@H]([C@H](O)[C@H](O)CO)O6)[C@H](O)[C@H](O)[C@H]5O)[C@H](O)[C@H]4NC(C)=O)[C@@H]3O)[C@H](O)[C@H]2NC(C)=O)[C@H](O)[C@H]1NC(C)=O)C(=O)O)C(=O)NCC(=O)N[C@@H](CCCNC(=N)N)C(N)=O)C(C)C` [GL34CE1], on GLP-1 receptor [1], it took 0.72 nM to reach a half-maximal effect (EC50). On GLP-1 receptor [2], this compound displayed an IC50 of 3.5 nM.

As to `CC[C@H](C)[C@H](NC(=O)[C@H](Cc1ccccc1)NC(=O)[C@H](CCC(=O)O)NC(=O)[C@H](CC(=O)N[C@@H]1O[C@H](CO)[C@@H](O[C@@H]2O[C@H](CO[C@]3(C(=O)O)C[C@H](O)[C@@H](NC(C)=O)[C@H]([C@H](O)[C@H](O)CO)O3)[C@H](O)[C@H](O)[C@H]2O)[C@H](O)[C@H]1NC(C)=O)NC(=O)[C@H](C)NC(=O)[C@H](C)NC(=O)[C@H](CCC(N)=O)NC(=O)CNC(=O)[C@H](CCC(=O)O)NC(=O)[C@H](CC(C)C)NC(=O)[C@H](Cc1ccc(O)cc1)NC(=O)[C@H](CO)NC(=O)[C@H](CO)NC(=O)[C@@H](NC(=O)[C@H](CC(=O)O)NC(=O)[C@H](CO)NC(=O)[C@@H](NC(=O)[C@H](Cc1ccccc1)NC(=O)[C@@H](NC(=O)CNC(=O)[C@H](CCC(=O)O)NC(=O)[C@H](C)NC(=O)[C@@H](N)Cc1c[nH]cn1)[C@@H](C)O)[C@@H](C)O)C(C)C)C(=O)N[C@@H](C)C(=O)N[C@@H](Cc1c[nH]c2ccccc12)C(=O)N[C@@H](CC(C)C)C(=O)N[C@H](C(=O)N[C@@H](CCCCN)C(=O)NCC(=O)N[C@@H](CCCNC(=N)N)C(=O)N[C@@H](CC(=O)N[C@@H]1O[C@H](CO)[C@@H](O[C@@H]2O[C@H](CO[C@]3(C(=O)O)C[C@H](O)[C@@H](NC(C)=O)[C@H]([C@H](O)[C@H](O)CO)O3)[C@H](O)[C@H](O)[C@H]2O)[C@H](O)[C@H]1NC(C)=O)C(N)=O)C(C)C` [GL2637NS6], at GLP-1 receptor [1], a half-maximal effect (EC50) was put at 1 nM. This compound came in with an IC50 on GLP-1 receptor [2] of 21 nM.

On GLP-1 receptor [2], `CC[C@H](C)[C@H](NC(=O)[C@H](Cc1ccccc1)NC(=O)[C@H](CCC(=O)O)NC(=O)[C@H](CCCCN)NC(=O)[C@H](C)NC(=O)[C@H](C)NC(=O)[C@H](CCC(N)=O)NC(=O)CNC(=O)[C@H](CCC(=O)O)NC(=O)[C@H](CC(C)C)NC(=O)[C@H](Cc1ccc(O)cc1)NC(=O)[C@H](CO)NC(=O)[C@H](CO)NC(=O)[C@@H](NC(=O)[C@H](CC(=O)O)NC(=O)[C@H](CO)NC(=O)[C@@H](NC(=O)[C@H](Cc1ccccc1)NC(=O)[C@@H](NC(=O)CNC(=O)[C@H](CCC(=O)O)NC(=O)[C@H](C)NC(=O)[C@@H](N)Cc1c[nH]cn1)[C@@H](C)O)[C@@H](C)O)C(C)C)C(=O)N[C@@H](C)C(=O)N[C@@H](Cc1c[nH]c2ccccc12)C(=O)N[C@@H](CC(C)C)C(=O)N[C@H](C(=O)N[C@@H](CC(=O)N[C@@H]1O[C@H](CO)[C@@H](O[C@@H]2O[C@H](CO[C@]3(C(=O)O)C[C@H](O)[C@@H](NC(C)=O)[C@H]([C@H](O)[C@H](O)CO)O3)[C@H](O)[C@H](O)[C@H]2O)[C@H](O)[C@H]1NC(C)=O)C(=O)NCC(=O)N[C@@H](CCCNC(=N)N)C(N)=O)C(C)C` [GL34NS6] gave an IC50 of 0.7 nM.

For `CC[C@H](C)[C@H](NC(=O)[C@H](Cc1ccccc1)NC(=O)[C@H](CS)NC(=O)[C@H](CCCNC(=N)N)NC(=O)[C@@H](NC(=O)[C@H](C)NC(=O)[C@H](CCC(=O)O)NC(=O)[C@H](CCC(=O)O)NC(=O)[C@H](CCC(=O)O)NC(=O)[C@H](CCSC)NC(=O)[C@H](CCC(N)=O)NC(=O)[C@H](CCCCN)NC(=O)[C@H](CO)NC(=O)[C@H](CC(C)C)NC(=O)[C@H](CC(=O)O)NC(=O)[C@H](CO)NC(=O)[C@@H](NC(=O)[C@H](Cc1ccccc1)NC(=O)[C@@H](NC(=O)CNC(=O)[C@H](CCC(=O)O)NC(=O)CNC(=O)[C@@H](N)Cc1c[nH]cn1)[C@@H](C)O)[C@@H](C)O)C(C)C)C(=O)N[C@@H](CCC(=O)O)C(=O)N[C@@H](Cc1c[nH]c2ccccc12)C(=O)N[C@@H](CC(C)C)C(=O)N[C@@H](CCCCN)C(=O)N[C@@H](CS)C(=O)NCC(=O)NCC(=O)N1CCC[C@H]1C(=O)N[C@@H](CO)C(=O)N[C@@H](CO)C(=O)NCC(=O)N[C@@H](CS)C(=O)N1CCC[C@H]1C(=O)N1CCC[C@H]1C(=O)N1CCC[C@H]1C(=O)N[C@@H](CO)C(=O)N[C@@H](CS)C(N)=O` [EX21283540C], on GLP-1 receptor [1], the EC50 was 0.055 nM.

`CC[C@H](C)[C@H](NC(=O)[C@H](Cc1ccccc1)NC(=O)[C@H](CCC(=O)O)NC(=O)[C@H](CCCCN)NC(=O)[C@H](C)NC(=O)[C@H](C)NC(=O)[C@H](CCC(N)=O)NC(=O)CNC(=O)[C@H](CCC(=O)O)NC(=O)[C@H](CC(C)C)NC(=O)[C@H](Cc1ccc(O)cc1)NC(=O)[C@H](CO)NC(=O)[C@H](CO)NC(=O)[C@@H](NC(=O)[C@H](CC(=O)O)NC(=O)[C@H](CO)NC(=O)[C@@H](NC(=O)[C@H](Cc1ccccc1)NC(=O)[C@@H](NC(=O)CNC(=O)[C@H](CCC(=O)O)NC(=O)[C@H](C)NC(=O)[C@@H](N)Cc1c[nH]cn1)[C@@H](C)O)[C@@H](C)O)C(C)C)C(=O)N[C@@H](C)C(=O)N[C@@H](Cc1c[nH]c2ccccc12)C(=O)N[C@@H](CC(C)C)C(=O)N[C@H](C(=O)N[C@@H](CC(=O)N[C@@H]1O[C@H](CO)[C@@H](O[C@@H]2O[C@H](CO)[C@@H](O[C@@H]3O[C@H](CO[C@H]4O[C@H](CO)[C@@H](O)[C@H](O)[C@@H]4O[C@@H]4O[C@H](CO)[C@@H](O[C@@H]5O[C@H](CO[C@]6(C(=O)O)C[C@H](O)[C@@H](NC(C)=O)[C@H]([C@H](O)[C@H](O)CO)O6)[C@H](O)[C@H](O)[C@H]5O)[C@H](O)[C@H]4NC(C)=O)[C@@H](O)[C@H](O[C@H]4O[C@H](CO)[C@@H](O)[C@H](O)[C@@H]4O[C@@H]4O[C@H](CO)[C@@H](O[C@@H]5O[C@H](CO[C@]6(C(=O)O)C[C@H](O)[C@@H](NC(C)=O)[C@H]([C@H](O)[C@H](O)CO)O6)[C@H](O)[C@H](O)[C@H]5O)[C@H](O)[C@H]4NC(C)=O)[C@@H]3O)[C@H](O)[C@H]2NC(C)=O)[C@H](O)[C@H]1NC(C)=O)C(=O)NCC(=O)N[C@@H](CCCNC(=N)N)C(N)=O)C(C)C` [GL34NE1] came in with an IC50 at GLP-1 receptor [2] of 2.7 nM.

The compound `CC[C@H](C)[C@H](NC(=O)[C@H](Cc1ccccc1)NC(=O)[C@H](CCC(=O)O)NC(=O)[C@H](CC(N)=O)NC(=O)[C@H](C)NC(=O)[C@H](C)NC(=O)[C@H](CCC(N)=O)NC(=O)CNC(=O)[C@H](CCC(=O)O)NC(=O)[C@H](CC(C)C)NC(=O)[C@H](Cc1ccc(O)cc1)NC(=O)[C@H](CO)NC(=O)[C@H](CO)NC(=O)[C@@H](NC(=O)[C@H](CC(=O)O)NC(=O)[C@H](CO)NC(=O)[C@@H](NC(=O)[C@H](Cc1ccccc1)NC(=O)[C@@H](NC(=O)CNC(=O)[C@H](CCC(=O)O)NC(=O)[C@H](C)NC(=O)[C@@H](N)Cc1c[nH]cn1)[C@@H](C)O)[C@@H](C)O)C(C)C)C(=O)N[C@@H](C)C(=O)N[C@@H](Cc1c[nH]c2ccccc12)C(=O)N[C@@H](CC(C)C)C(=O)N[C@H](C(=O)N[C@@H](CCCCN)C(=O)NCC(=O)N[C@@H](CCCNC(=N)N)C(N)=O)C(C)C` [GL26N] returned an EC50 on GLP-1 receptor [1] of 0.09 nM. In other words, the picomolar range.

Values taken from US20100016547A1, “Glycosilated Peptide and Medicine Comprising It as an Effective Ingredient” (priority 2005, published 2010).
